Laboratory results reported in US9790193B2, “Semicarbazide-sensitive amine oxidase inhibitors for use as analgesics in traumatic neuropathy and neurogenic inflammation” (PÉCSI TUDOMÁNYEGYETEM, priority 2014, dated 2017).
Entries after “also recorded” stand apart in the source; their conditions may differ.

Assays:
RTX-induced hyperalgesia = assay: Resiniferatoxin-evoked thermal and mechanical hyperalgesia in mice; type: in vivo, male C57Bl/6 mice; details: mouse; for drop of mechanonociceptive threshold after RTX at 2 hours: solvent group 47.1±6%; for acute neurogenic inflammatory heat allodynia: only significant in case of SZV-1287 after RTX
Description: (§1) The solutions were prepared freshly on the day of the experiment with sterile saline. SZV-1287 (prepared according to WO 2010/029379 A1) dissolved in saline and the solution was clear. The SZV-1911 (prepared according to WO2006/094201 and WO2005/014530) solution was prepared with Tween 80 and ethanol, stirred properly with a vortex, heated moderately to 42° C. and sonicated, but it was still opalescent. The i.p. administered volume was 0.2 ml/100 g body weight from 10 mg/ml in rats solution and 0.1 m/10 g body weight from 2 mg/ml solution to achieve the 20 mg/kg doses. The solvent of SZV-1911 was given to the vehicle-treated animals in the same volume.
(§2) Sciatic nerve ligation-induced traumatic mononeuropathy experiments were performed on male Wistar rats (250-300 g), and on male C57Bl/6 mice as well as resiniferatoxin- or formalin-induced hyperalgesia. The original breeding pairs of the animals were purchased from Charles River Ltd. All the animals were kept in the Animal Facility of the Department of Pharmacology and Pharmacotherapy at the University of Pécs at 24-25° C. provided with standard chow and water ad libitum.
(§3) The mechanical touch sensitivity thresholds of the plantar surface of the paws was determined by aesthesiometry (Ugo Basile Dynamic Plantar Aesthesiometer 37400; Comerio, Italy). This is an electronic von Frey device, in which the animals moved about freely in one of the compartments of the enclosure positioned on the metal mesh surface. Following acclimation after cessation of exploratory behaviour, the touch stimulator unit was placed under the animal's paw, using the adjustable angled-mirror to position the filament below the target area of the plantar surface. Then an electrodynamic actuator of proprietary design lifted a straight metal filament, which touched the plantar surface and began to exert an increasing upward force at a preset rate of application until a stop signal (removal of the paw) was attained. The paw withdrawal threshold was obtained in grams. Hyperalgesia or allodynia (decrease of the withdrawal thresholds) was expressed as percentage by comparing the data of each individual animal to the averaged three initial control thresholds.
Resiniferatoxin (RTX) is a potent agonist of Transient Receptor Potential Vanilloid 1 (TRPV1) receptors, which are mainly expressed on capsicin-sensitive sensory nerve ending. Intraplantarly (i.pl.) injection of RTX (0.03 μg/ml; 20 μl) into one of the hindpaws induced an acute inflammation and a robust drop of heat and mechanical thresholds.
The noxious heat threshold of the paw, defined as the lowest temperature evoking nocifensive behaviour—was measured with an increasing-temperature hot plate (IITC Life Science, Woodland Hills, Calif., USA). After habituation, mice were placed onto the plate, which was then heated up from room temperature at a rate of 12° C./min until the animals showing nocifensive behaviour (licking, lifting or shaking one of the hindpaws). The corresponding plate temperature was considered as the noxious heat threshold.
Lines represent thermal and mechanical hyperalgesia before drug injection and 5, 10, 15, 20 min as well as 2, 4, 6, 24 hours, respectively after compound/solvent administration. Results are expressed as means±s.e.m. of the thermo- and mechanonociceptive threshold changes of n=7-8 per groups. Data were analysed with Two-way ANOVA following Bonferroni's post-test in comparison to determine differences between the pre- and post-injection values of the respective groups **p<0.01, *** p<0.001 SZV-1287 vs. saline and ### p<0.001 SZV-1911 vs. saline.

[1] = tested on: formalin-induced acute nocifensive behaviours and hyperalgesia; assay: Formalin-induced acute nocifensive behaviour and hyperalgesia in mice; type: in vivo, male C57Bl/6 mice; details: mouse
Description: as §1
as §2, with “libitum. […]” for “libitum.”
The noxious heat threshold of the paw, defined as the lowest temperature evoking nocifensive behaviour—was measured with an increasing-temperature hot plate (IITC Life Science, Woodland Hills, Calif., USA). […]
The total duration of paw licking and lifting were expressed to representing the nociceptive behaviour. […] Mechanical hyperalgesia values were determined as % by comparing the nociceptive thresholds measured at 2 and 4 hours after the application to the initial threshold values. Results are expressed as means±s.e.m. of the thermo- and mechanonociceptive threshold changes of n=11-11 animals/groups. Data were analysed with One-way ANOVA following Bonferroni's post-test in comparison to determine differences between the pre- and post-injection values of the respective groups.

[2] = tested on: sciatic nerve ligation-induced mechanical hyperalgesia; assay: Sciatic nerve ligation-induced traumatic mononeuropathy, mechanical hyperalgesia in mice (dynamic plantar aesthesiometry); type: in vivo, male C57Bl/6 mice; details: mouse, injured paw, single dose 20 mg/kg i.p., 15 minutes after administration, vs postoperative control values
Description: as §1
Sciatic nerve ligation-induced traumatic mononeuropathy experiments were performed on male Wistar rats (250-300 g), and on male C57Bl/6 mice as well as resiniferatoxin- or formalin-induced hyperalgesia. […]
On the 3rd and on the 7th day following the nerve ligation, the mechano-nociceptive thresholds were determined directly before and 15 min after i.p. drug administration to observe the difference between pre-injection and post-injection thresholds in mice. We determined the developing cold allodynia following the sciatic nerve ligation at Days 3 and 7. […]
The mechanical touch sensitivity thresholds of the plantar surface of the paws was determined by aesthesiometry (Ugo Basile Dynamic Plantar Aesthesiometer 37400; Comerio, Italy). […]

[3] = tested on: sciatic nerve ligation-induced mechanical allodynia; assay: Sciatic nerve ligation-induced traumatic mononeuropathy, mechanical allodynia in rats (dynamic plantar aesthesiometry); type: in vivo, male Wistar rats; details: for change of the mechanonociceptive thresholds, contralateral side of the operated rats / inhibitory effect on mechanical allodynia / mechanical allodynia (decrease of withdrawal threshold vs initial control) after drug injection: rat; for change of the mechanonociceptive thresholds, contralateral side of the operated rats: contralateral paw; for change of the mechanonociceptive thresholds, contralateral side of the operated rats / mechanical allodynia (decrease of withdrawal threshold vs initial control) after drug injection / change of the mechanonociceptive thresholds, sham-operated group: 20 mg/kg i.p.; for inhibitory effect on mechanical allodynia / mechanical allodynia (decrease of withdrawal threshold vs initial control) after drug injection: operated limb; for inhibitory effect on mechanical allodynia: day 7, 20 mg/kg i.p., post- vs pre-injection; for mechanical allodynia (decrease of withdrawal threshold vs initial control) after drug injection: day 7 after nerve ligation, 15 min after administration, mean±s.e.m.; for change of the mechanonociceptive thresholds, sham-operated group: sham-operated rats
Description: as §1, §2
Before all experiments one conditioning and three reliable control threshold measurements were performed on three consecutive days. All operations were performed by the same operator, who was blinded to the animal group assignments and the treatment allocation (FIG. 1A for the rat, B for the mouse experimental paradigm).
(§4) On the 3rd and on the 7th day following the nerve ligation, the mechano-nociceptive thresholds were determined directly before and 15 min after i.p. drug administration to observe the difference between pre-injection and post-injection thresholds in mice. We determined the developing cold allodynia following the sciatic nerve ligation at Days 3 and 7. In rats we examined the developing mechanical allodynia just 7 days after the sciatic nerve ligation on the same way like in mice. Only animals with a minimum of 25% hyperalgesia/allodynia were included in the study (Seltzer et al., Pain., 1990, 43(2):205-18; Pintér et al., Naunyn Schmiedebergs Arch Pharmacol., 2002, 366(2):142-50.).
Mice were anaesthesized with a combination of ketamine and xylazine (100 mg/kg and 5 mg/kg i.p. respectively), but in rats Na-pentobarbital (40 mg/kg i.p) were used. The common sciatic nerve was exposed unilaterally on the right side high in the thigh and ⅓-½ of the nerve trunk was carefully separated and tightly ligated using a siliconised silk suture (Ethicone 5-0 and 8.0, respectively). Then the wound was closed and the animals were allowed to survive for 8 days (Seltzer, 1990; Malmberg and Basbaum 1998; Bolcskei et al. 2005; Sandor et al. 2010). During this period, signs of spontaneous pain (holding the legs in elevated position transiently for 2-3 days) and mechanical hyperalgesia and cold allodynia developed. In order to investigated the efficacy of these drugs we examined the drop of the mechanical touch sensitivity on Day 3, however the decrease of the mechanical threshold develops fully 7 days after the surgery.
as §3, with “Hyperalgesia or allodynia (decrease of the withdrawal thresholds) was expressed as percentage by comparing the data of each individual animal to the averaged three initial control thresholds.” left out

[4] = tested on: sciatic nerve ligation-induced cold allodynia; assay: Sciatic nerve ligation-induced cold allodynia in mice (paw withdrawal latency from 0° C. water); type: in vivo, male C57Bl/6 mice; details: mouse, injured paw, days 3 and 7 after nerve ligation
Description: as §4
Mice were anaesthesized with a combination of ketamine and xylazine (100 mg/kg and 5 mg/kg i.p. respectively), but in rats Na-pentobarbital (40 mg/kg i.p) were used. […]
A noxious cold stimulus was applied by immersing one of the murine hindpaws in icy water, remaining the temperature steady at 0° C. Cold perception was assessed as the time taken by the animal to pulling out its paw from the cold water, the cut-off time was 180 seconds. […]
The paw withdrawal latency values were determined as % by comparing the latencies measured on day 3 and 7 after the operation to the mean initial latency values. […] Results are expressed as means±s.e.m of the withdrawal behaviour latency changes of n=6-6 mice per groups. […]

SMILES | drop of mechanonociceptive threshold after RTX at 2 hours (RTX-induced hyperalgesia; 20 mg/kg i.p. pretreatment) | drop of heat threshold after intraplantar RTX (RTX-induced hyperalgesia; 20 mg/kg i.p. pretreatment, maintained during 15 minutes, solvent group approx. 8 degree) | acute neurogenic inflammatory heat allodynia (RTX-induced hyperalgesia) | thermonociceptive threshold after formalin application ([1]; 1 hour, basal 44.8±1.7° C., saline treated mice 37.4±3° C.) | nocifensive behaviour (total duration of paw lickings and liftings), early phase ([1]; formalin i.pl., early phase (0-5 min), vs saline) | nocifensive behaviour (total duration of paw lickings and liftings), late phase ([1]; formalin i.pl., late phase (20-45 min), vs saline) | sciatic nerve ligation-induced neuropathic mechanical hyperalgesia [2] | change of the mechanonociceptive thresholds, contralateral side of the operated rats [3] | inhibitory effect on mechanical allodynia [3] | mechanical allodynia (decrease of withdrawal threshold vs initial control) after drug injection [3] | change of the mechanonociceptive thresholds, sham-operated group [3] | neuropathic cold hyperalgesia (cold allodynia, paw withdrawal latency) [4] | change of mechanonociceptive threshold after RTX at 4 hours (RTX-induced hyperalgesia; 20 mg/kg i.p. pretreatment, 4 hours, solvent group 35.3±3%) | sciatic nerve ligation-induced neuropathic mechanical hyperalgesia ([2]; 20 mg/kg)
ON=CCCc1nc(-c2ccccc2)c(-c2ccccc2)o1 [SZV-1287, 3-(4,5-diphenyl-1,3-oxazol-2-yl)propanal oxime] | 22.1±7% | 1-2 °C | moderately decreased | 37.5±4 °C | significantly lower | significantly lower | significantly decreased | No change | approximately 30% | 34.6±7.6% | No change | did not influence |  | 
C=C(CNN)c1ccccc1 [SZV-1911, (2-phenyl-2-propen-1-yl)hydrazine] | 14.7±6% |  | moderately decreased |  |  |  |  | No change | approximately 30% | 32.9±3.4% | No change | did not influence | 6.5±6% | significantly diminished; also recorded: significantly decreased
